Measured values reported in patent US20250092360A1, “METHODS AND COMPOSITIONS FOR GENERATING SOMATOSTATIN+ INTERNEURONS FROM HUMAN FOREBRAIN NEURAL PROGENITOR CELLS” (Trailhead Biosystems Inc., priority 2023, published 2025).
Entries after “also recorded” stand apart in the source; their conditions may differ.

Legend:
[1] = tested on: human pluripotent stem cells; assay: HD-DoE stage 1, first 12-factor experiment: gene expression (qPCR) after 3-day treatment; type: cell-based
Description: This example utilizes a method of High-Dimensional Design of Experiments (HD-DoE), as previously described in Bukys et al. (2020) […] 23:101346. The method employs computerized design geometries to simultaneously test multiple process inputs and offers mathematical modeling of a deep effector/response space. The method allows for finding combinatorial signaling inputs that control a complex process, such as during cell differentiation. It allows testing of multiple plausible critical process parameters, as such parameters impact output responses, such as gene expression. Because gene expression provides hallmark features of the phenotype of, for example, a human cell, the method can be applied to identify, and understand, which signaling pathways control cell fate. In the current example, the HD-DOE method was applied with the intent to find conditions for induction of […] neural progenitor-expressed genes, directly from the pluripotent stem cell state. To develop the recipe for each stage, the impact of agonists and antagonists of multiple signaling pathways (herein called effectors) on the expression of two sets of 53 pre-selected genes, after a 3-day treatment, has been tested and modeled. These effectors are small molecules or proteins that are commonly used during stepwise differentiation of stem cells to specific fates. Choice of the effectors were based on current literature on neural induction in forebrain region of developing brain and differentiation of stem cells to neural progenitors. To test the effectors, experiments with at least 8 factors were designed that can assess the response of cells to 48 or more different combinations of effectors in a range of concentrations. To analyze the models, we focused on expression of genes involved in development and patterning of the anterior neuroectoderm and forebrain including OTX2 (Hoch et al. (2015) Cell Reports 12:482-494), SIX3 (Lagutin et al. (2003) Genes & Development 17:368-379) and FEZF2 (Zhang et al. (2014) Development 141:4794-[…]). At later stages we focused on dorsoventral patterning of telencephalon and gene expressed in ventral forebrain including NKX2-1 and absence of PAX6 which is a dorsal forebrain marker (Stoykova et al. (2000) J. Neurosci. 20:8042-8050). The impact of each effector on gene expression level is defined by a parameter called factor contribution that is calculated for each effector during the modeling. To identify the recipe for stage 1 of differentiation, 96 different combinations of effectors generated using Design-of-Experiments compression through D-optimality were robotically prepared. The effector combinations were prepared in a basal media and were subsequently added to the cells, which were then allowed to differentiate. Three days later RNA extraction was performed, and gene expression was obtained using quantitative PCR analysis. The data were normalized and modeled using partial least squares regression analysis to the effector design, resulting in the generation of gene-specific models, which after model tuning for maximal Q2 predictive power, provided explanation of the effectors ability to control the expression of individual genes, combinatorically, and individually. Solutions within the tested space could then be explored to address desirability. Optimizing for maximal expression of SIX3 at 3300 and FEZF2 1355 expression values led to robust solutions. This model was derived from testing 12 effectors including AGN193109, LDN193189, CHIR99021, XAV939, IGF2, Purmorphamine, 4-oxo-RA, TTNPB, SR11237, FGF8, PD0325901 and […]. […] The model was also optimized for maximum expression of FEZF2 separately at 3576 expression value to find any additional factors that can boost expression of forebrain genes. […] To find the set of factors that have the potential to optimize all 3 genes in this experiment, a new assessment was done through dynamic profile analysis with focus on maximal expression of OTX2, FEZF2 and SIX3.

[2] = tested on: forebrain-committed neural stem cells; assay: Factor criticality analysis, stage 2 recipe; type: cell-based, human; conditions: other three stage 2 factors present
Method: (§1) To assess the impact of the elimination of each validated factor, dynamic profile analysis was used and compared the expression level of genes of interest in absence of each finalized factor while others are present.
In the stage 2 recipe, each of the four finalized factors were removed while the other three factors remained present and expression levels of NKX2-1, PAX6 and NKX2-2 were assessed compared to presence of all four factors. Absence of PD0325901 reduced the levels of NKX2-1 and NKX2-2 while increasing PAX6 from 5000 to 3200, 100 to 0 and 0 to 5000, respectively. […] Removing XAV939 reduced the levels of NKX2-1 from 5000 to 3000, while increasing both PAX6 and NKX2-2 to 10000 and 200, respectively. Another observation was the interaction between XAV939 and Purmorphamine. In the absence of XAV939, the impact of Purmorphamine on NKX2-1 became negative and, as it is shown in interaction plot of FIG. 14, the level of NKX2-1 is higher when both factors are present.

[3] = tested on: human pluripotent stem cells; assay: HD-DoE stage 1, additional experiment: FEZF2 expression; type: cell-based
Method: To identify the recipe for stage 1 of differentiation, 96 different combinations of effectors generated using Design-of-Experiments compression through D-optimality were robotically prepared. The effector combinations were prepared in a basal media and were subsequently added to the cells, which were then allowed to differentiate. Three days later RNA extraction was performed, and gene expression was obtained using quantitative PCR analysis. The data were normalized and modeled using partial least squares regression analysis to the effector design, resulting in the generation of gene-specific models, which after model tuning for maximal Q2 predictive power, provided explanation of the effectors ability to control the expression of individual genes, combinatorically, and individually. Solutions within the tested space could then be explored to address desirability. To further enhance the conditions for forebrain differentiation from pluripotency, an additional HD-DoE experiment was performed. Additional gene regulatory models were obtained that were used for preparation of the differentiation protocol. The factors in this experiment included LDN193189, PD173074, BLU9931, Purmorphamine, SC79, MK2206, ZM336372, PD0325901, CHIR99021, XAV939, UCLA-GP130, Tofacitinib and GO6983. […] Dynamic profile analysis was also used to assess the interaction between the effectors.

[4] = tested on: forebrain-committed neural stem cells; assay: HD-DoE stage 2, 12-factor experiment: NKX2-1 expression; type: cell-based, human; conditions: model / dynamic profile, in words
Method: To further guide the differentiation of forebrain-committed neural stem cells to ventral forebrain neural stem cells at stage 2, a HD-DoE experiment was performed for 3 days after termination of stage 1 treatment. […] This 12-factor experiment included LDN193189, BMP7, PD0325901, MK2206, A8301, XAV939, CHIR99021, Purmorphamine, SANT-1, AGN193109, TTNPB and GSI-XX. […]

[5] = tested on: human pluripotent stem cells; assay: Factor criticality analysis, stage 1 recipe (dynamic profile analysis); type: cell-based; conditions: other five stage 1 factors present, FIG. 11
Description: as §1, with “present. […] When Purmorphamine was removed, levels of FEZF2 and SIX3 were decreased to 1000 and below 3000, while levels of OTX2 increased to 6500.” for “present.”

[6] = tested on: stage 2 neural stem cells; assay: Factor criticality analysis, stage 3 recipe; type: cell-based, human; conditions: other five stage 3 factors present
Method: as §1
In the stage 3 recipe, each of the six finalized factors were removed while the other five factors remained present and the expression levels of ASCL1, DLX1 and LHX6 were assessed compared to the presence of all six factors. […] As expected, in the absence of IGF-1, the value of DLX1 increases to 410, however, ASCL1 and LHX6 decreased to 1390 and 220, respectively.

[7] = tested on: medial ganglionic eminence (MGE)-derived neural progenitors; assay: HD-DoE stage 4, 12-factor experiment: SOX6 expression; type: cell-based, human
Description: These effectors are small chemical compounds or proteins. They are commonly used during the differentiation of stem cells to specific cell linage. The choice of the effectors was based on the current literature on forebrain neural induction and differentiation of neural progenitor cells to mature neurons.
To evaluate the effectors on SST differentiation, experiments with 8 or 12 factors were designed to assess the responses of cells to 48 or more combinations of effectors in a range of concentrations. To analyze the models, we focused on expression of genes involved in development and patterning of the forebrain interneurons maturation including LHX6 (Liodis et al. (2007) J. Neurosci. 27:3078-3089; Yuan et al. (2018) Elife 7: e37382), SOX6 (Azim et al. (2009) Nature Neurosci. 12:1238-1247; Batista-Brito et al. (2009) Neuron 63:466-481), DLX5 (de Lombares et al. (2019) Aging (Albany NY) 11:6638; Wang et al. (2010) J. Neurosci. 30:5334-5345) and ASCL1 (Barretto et al. (2020) J. Neurosci. Meth. 334:108548; Shi et al. (2016) J. Biol. Chem. 291:13560-13570). At later stages we focused on interneuron maturation genes including somatostatin and absence of Parvalbumin (Horn and Nicoll (2018) Proc. Natl. Acad. Sci. 115:589-594). The impacts of each effector on gene expression level are defined by a parameter called factor contribution that is calculated for each effector during the modeling.
To identify the recipe for differentiation at stage 4, at least 48 different combinations of effectors were robotically prepared by the Design-of-Experiments compression through D-optimality. The effector combinations were prepared in a basal media and were subsequently added to the cells, which were then allowed to differentiate. Three days later, RNA extraction was performed, and gene expression levels were examined using quantitative PCR analysis. The data was normalized and modeled using partial least squares regression analysis to the effector design, resulting in the generation of gene-specific models, which after model tuning for maximal predictive power, provided explanation of the effectors ability to control the expression of individual genes, combinatorically, and individually. Solutions within the tested space could then be explored to address desirability.
IGF-1 activates the IGF-1 pathway, promotes neuron axonal growth, and establishes the synapse of interneurons. GDNF is the […] and can activate the GDNF pathway. MK2206 is an AKT inhibitor and can inhibit cell proliferation and promote neuronal maturation. PD173074 and BLU-554 are FGFR inhibitors. The FGF pathway is required for the maintenance of neural progenitor cells. Inhibition of the FGFR pathway promotes neural maturation. GSI-XX is a notch pathway inhibitor. Notch pathway inhibits neural progenitor cell differentiation. Inhibition of the Notch pathway promotes neural differentiation.
To find the set of factors that have the potential to optimize SOX6 in this experiment, a new assessment was done through dynamic profile analysis with focus on maximal expression of SOX6.

[8] = tested on: medial ganglionic eminence (MGE)-derived neural progenitors; assay: Factor criticality analysis, stage 4 recipe; type: cell-based, human; conditions: FIG. 27, in words
Method: To assess the impact of elimination of each validated factor, dynamic profile analysis was again used to compare the expression levels of genes of interest in the absence of each finalized factor while the others were present in the media.
In the stage 4 recipe, each of the five finalized factors was removed while the other four factors remained present in the media and the expression level of forebrain genes was assessed compared to the presence of all 6 factors. SOX6 expression was reported to determine the cortical interneuron-precursors cell fate (see e.g., Azim et al. (2009) Nature Neurosci. 12:1238-1247; Batista-Brito et al. (2009) Neuron 63:466-481). Therefore, optimization of SOX6 expression was focused on at this stage.

[9] = tested on: stage 2 neural stem cells; assay: HD-DoE stage 3 experiment: ASCL1, LHX6, DLX1 expression; type: cell-based, human
Method: To further guide the cells to medial ganglionic eminence progenitor fate, an additional HD-DoE experiment was performed for 3 days on cells that were treated with stage 1 and stage 2 media for total of 6 days prior to start of the experiment. This experiment included 13 effectors, LDN193189, A8301, GNF5837, AZD3147, GSI-XX, Takinib, PD0325901, PD173074, BLU9931, IGF-1, MHY1485, Purmorphamine and Prostratin. In this model, we focused on maximum expression of genes expressed in neuronal progenitor cells in medial ganglionic eminence (MGE) region including ASCL1, LHX6 and DLX1 (Silberberg et al. (2016) Neuron 92:59-74). When the model was optimized for maximum expression of ASCL1 at 1700, A8301, GSI-XX, Purmorphamine and Takinib, which is an inhibitor of TAK1 pathway, had the highest factor contributions, 18.1, 14.1, 12.7 and 10.1 respectively. […] MHY 1485 also had positive contribution however the factor was below 2 (FIG. 9).
Therefore, six effectors including A8301, GSI-XX, Takinib, GNF5837, IGF-1 and Purmorphamine were finalized as ingredients of stage 3 differentiation media. A representative recipe for Stage 3 differentiation is summarized below in Table 3.

Oc1nc(-c2ccc(C(F)(F)F)cc2)nc2c1CSCC2 [XAV939]
impact on expression of OTX2 ([1]; dynamic profile / model, in words): positive impact | factor contribution, expression of SIX3 ([1]; positive impact, model optimized for maximal SIX3, 3-day treatment, qPCR): 5 | expression level of PAX6 when the factor is removed ([2]; 0 with all four factors): 10000 | expression level of NKX2-2 when the factor is removed ([2]; 100 with all four factors): 200 | expression level of NKX2-1 when the factor is removed ([2]; 5000 with all four factors): 3000 | impact on expression of FEZF2 ([3]; dynamic profile, in words): positive impact | factor contribution, expression of FEZF2 ([3]; positive impact, additional stage 1 experiment optimized for FEZF2): 12 | impact on expression of NKX2-1 [4]: increase; also recorded: Positive impact | expression level of FEZF2 when the factor is removed ([5]; 2000 with all six factors): 1700 | expression level of SIX3 when the factor is removed ([5]; 3000 with all six factors): 1000 | expression level of OTX2 when the factor is removed ([5]; 5500 with all six factors): 5000

IGF-1: Growth factor; activates the IGF-1 pathway
expression level of DLX1 when the factor is removed ([6]; 220 with all six factors): 410 | expression level of LHX6 when the factor is removed ([6]; 240 with all six factors): 220 | expression level of ASCL1 when the factor is removed ([6]; 1650 with all six factors): 1390 | impact on expression of SOX6 ([7]; dynamic profile, in words): positive impact | factor contribution, expression of SOX6 ([7]; positive impact, model optimized for maximal SOX6 at 1442): 2.9 | effect on SOX6 expression [8]: increase | impact on expression of ASCL1 ([9]; dynamic profile, in words): positive effect | impact on expression of DLX1 ([9]; dynamic profile, in words): negative impact | impact on expression of LHX6 ([9]; dynamic profile, in words): positive effect | factor contribution, expression of ASCL1 ([9]; positive, model optimized for maximum ASCL1 at 1700): 7
